# In patent publication US9469854B2, “Pharmaceutical composition for treating liver diseases” (Academia Sinica, priority 2014, dated 2016):
# Key:
# DGAT2 = assay: qRT-PCR mRNA expression in primary human hepatocytes; type: cell-based; conditions: PHH
# Procedure: (§1) The primary human hepatocytes from Caucasian donors were purchased from Invitrogen and cultured following the manufacturer's instructions. The hepatocytes were thawed and transferred into cryopreserved hepatocytes recovery medium (CM7000, Invitrogen), centrifuging at room temperature, 100×g for 10 min. Then, the hepatocytes were diluted to seeding density with plating medium (CM3000, Invitrogen) and added into collagen I-coated plates (Invitrogen). These plates were incubated at 37° C. for 4-6 hours under 5% CO2 for forming a monolayer. Then, plating medium was replaced by overlay incubation medium (CM4000 and 0.35 mg/mL Geltrex™ Matrix, Invitrogen), and the incubation medium was replaced daily. In the following examples, hepatocytes form 3 to 4 donors were used for experiments. A 50 mM stock solution of berberine chloride (Sigma-Aldrich) was prepared in dimethyl sulfoxide (DMSO). Cells were treated with 40 μM of berberine chloride or 0.08% DMSO as the control. For induction of lipid droplets formation in cultured cells, 200 μM of oleic acid (Sigma-Aldrich) was added into the culture medium for 24 h. Total RNA was extracted using a TRIZOL reagent (Invitrogen) according to the manufacturer's protocol. The total RNA quantity was measured using a NanoDrop ND-1000 spectrophotometer (Nanodrop Technologies). The total RNA quality and integrity were assayed using an Agilent 2100 bioanalyzer with an RNA 6000 nano kit (Agilent Technologies). Total RNAs (1 μg) were reverse-transcribed into cDNA by using M-MuLV Reverse Transcriptase (Thermo) and Oligo(dT)12-18 primers (Invitrogen) according to the manufacturer's protocol. The cDNA were then used for a real-time PCR with a LightCycler 480 SYBR Green I Master (Roche) by using primers shown in the following Table 1. The gene expression levels were normalized to GAPDH levels.
# ACACB [1] = assay: as above; type: cell-based; conditions: PHH
# Procedure: as §1
# HLCS = assay: as above; type: cell-based
# Procedure: as §1
# MTOR = assay: as above; type: cell-based; conditions: for decrease in MTOR expression: 50 nM mimic transfection
# Procedure: as §1
# ACACA = assay: as above; type: cell-based; conditions: PHH
# Procedure: as §1
# RPTOR = assay: as above; type: cell-based; conditions: for decrease in RPTOR expression: 50 nM mimic transfection
# Procedure: as §1
# SPEBF2 = assay: as above; type: cell-based; conditions: PHH, 40 μM berberine, 4-8 h
# Procedure: The primary human hepatocytes from Caucasian donors were purchased from Invitrogen and cultured following the manufacturer's instructions. The hepatocytes were thawed and transferred into cryopreserved hepatocytes recovery medium (CM7000, Invitrogen), centrifuging at room temperature, 100×g for 10 min. Then, the hepatocytes were diluted to seeding density with plating medium (CM3000, Invitrogen) and added into collagen I-coated plates (Invitrogen). These plates were incubated at 37° C. for 4-6 hours under 5% CO2 for forming a monolayer. Then, plating medium was replaced by overlay incubation medium (CM4000 and 0.35 mg/mL Geltrex™ Matrix, Invitrogen), and the incubation medium was replaced daily. In the following examples, hepatocytes form 3 to 4 donors were used for experiments.
# A 50 mM stock solution of berberine chloride (Sigma-Aldrich) was prepared in dimethyl sulfoxide (DMSO). Cells were treated with 40 μM of berberine chloride or 0.08% DMSO as the control. For induction of lipid droplets formation in cultured cells, 200 μM of oleic acid (Sigma-Aldrich) was added into the culture medium for 24 h.
# Total RNA was extracted using a TRIZOL reagent (Invitrogen) according to the manufacturer's protocol. The total RNA quantity was measured using a NanoDrop ND-1000 spectrophotometer (Nanodrop Technologies). […]
# ACACB [2] = assay: qRT-PCR mRNA expression in HepG2 cells; type: cell-based, human
# Procedure: (§2) The human HepG2 cells and HEK 293T cells used in the following examples were originally obtained from the American Tissue Culture Collection (ATCC, USA). The human HCC HepG2 cell line was cultured in Minimum Essential Medium Eagle (Sigma) supplemented with 10% fetal bovine serum (FBS) (Invitrogen), 2.2 g/L of sodium bicarbonate (Sigma), 0.1 mM of non-essential amino acids (Caisson), 1 mM of sodium pyruvate (Invitrogen), and 10 of ml/L penicillin-streptomycin-amphotericin solution (Biological Industries). Human HEK-293T cells were maintained in high-glucose Dulbecco's modified eagle medium (Invitrogen) supplemented with 10% FBS and 3.7 g/L of sodium bicarbonate (Sigma). Both cell lines were cultured at 37° C. and 5% CO2. A 50 mM stock solution of berberine chloride (Sigma-Aldrich) was prepared in dimethyl sulfoxide (DMSO). Cells were treated with 40 μM of berberine chloride or 0.08% DMSO as the control. For induction of lipid droplets formation in cultured cells, 200 μM of oleic acid (Sigma-Aldrich) was added into the culture medium for 24 h. Total RNA was extracted using a TRIZOL reagent (Invitrogen) according to the manufacturer's protocol. The total RNA quantity was measured using a NanoDrop ND-1000 spectrophotometer (Nanodrop Technologies). The total RNA quality and integrity were assayed using an Agilent 2100 bioanalyzer with an RNA 6000 nano kit (Agilent Technologies). Total RNAs (1 μg) were reverse-transcribed into cDNA by using M-MuLV Reverse Transcriptase (Thermo) and Oligo(dT)12-18 primers (Invitrogen) according to the manufacturer's protocol. The cDNA were then used for a real-time PCR with a LightCycler 480 SYBR Green I Master (Roche) by using primers shown in the following Table 1. The gene expression levels were normalized to GAPDH levels. […] Cells were incubated for 24 h or 48 h with a microRNA mimic or inhibitor prior to RNA purification for gene expression analysis, and were incubated for 72 h for protein expression analysis.
# MAT1A = assay: qRT-PCR mRNA expression in HepG2 cells; type: cell-based, human
# Procedure: as §2
# MAT2A = assay: qRT-PCR mRNA expression in HepG2 cells; type: cell-based, human; conditions: for decrease in mRNA expression of MAT2A: HepG2, 50 nM mimic transfection
# Procedure: as §2
# MAT2B = assay: qRT-PCR mRNA expression in HepG2 cells; type: cell-based, human
# Procedure: as §2
# [3] = HepG2, 40 μM berberine, up to 8 h
# [4] = 24 h, cells not named in b149 (primary human hepatocytes)
# [5] = HepG2, 50 nM mimic transfection, 48 h
compound,measurement,setting,value
COc1ccc2cc3[n+](cc2c1OC)CCc1cc2c(cc1-3)OCO2 [berberine],changes in DGAT2 expression levels,"DGAT2; 40 μM berberine, 2-8 h",not significant
same,mRNA expression of ACACB,"ACACB [1]; 40 μM berberine, 4-8 h",decreases
same,mRNA expression of HLCS,"HLCS; PHH, 40 μM berberine, 4-8 h",decreases
same,mRNA expression of MTOR,"MTOR; PHH, 40 μM berberine, 4-8 h",decreases
same,ACACA expression decrease,"ACACA; 40 μM berberine, 8 h",2.1 fold
same,mRNA expression of RPTOR,"RPTOR; PHH, 40 μM berberine, 4-8 h",decreases
same,mRNA expression of SPEBF2,SPEBF2,decreases
same,ACACB expression,"ACACB [2]; HepG2, berberine (data not shown)",consistently decreased
same,MAT1A mRNA expression change,MAT1A; [3],did not change substantially
same,MAT2A mRNA level decrease,"MAT2A; HepG2, 40 μM berberine, 2 h vs 0.08% DMSO",1.8 fold
same,MAT2A mRNA level decrease,"MAT2A; HepG2, 40 μM berberine, 4 h (lowest value) vs 0.08% DMSO",3.8 fold
same,MAT2A mRNA level change (given as increase),"MAT2A; HepG2, 40 μM berberine, 8 h vs 0.08% DMSO",2.2 fold
same,MAT2B mRNA expression change,MAT2B; [3],did not change substantially
"hsa-miR-21-3p (CAACACCAGUCGAUGGGCUGU; listed as RNA, chemistry not given here) [miR-21-3p mimic]",decrease in mRNA expression levels of DGAT2,"DGAT2; mimic transfection, 48 h",1.5 fold
same,ACACB expression decrease,"ACACB [1]; 50 nM mimic transfection, 48 h",1.8 fold
same,decrease in HLCS expression,"HLCS; 50 nM mimic transfection, 48 h, cells not given",1.5 fold
same,decrease in MTOR expression,MTOR; [4],1.4 fold
same,decrease in MTOR expression,"MTOR; 48 h, cells not given",2.5 fold
same,ACACA expression decrease,"ACACA; 50 nM mimic transfection, 48 h",1.6 fold
same,decrease in RPTOR expression,RPTOR; [4],1.6 fold
same,decrease in RPTOR expression,"RPTOR; 48 h, cells not given",2.2 fold
same,decrease in mRNA expression of ACACB,"ACACB [2]; HepG2, mimic transfection, 24 h",50%
same,decrease in mRNA expression of MAT1A,MAT1A; [5],but not in that of MAT1A
same,decrease in mRNA expression of MAT2A,MAT2A; 24 hours,> 50%
same,decrease in mRNA expression of MAT2A,MAT2A; 48 h,> 50%
same,decrease in mRNA expression of MAT2B,MAT2B; [5],> 50%
